{"source": "patent US10765654B2", "about": "“Methods and compounds for treating cancer” (University of Vermont and State Agricultural College, priority 2011, dated 2020)", "key": {"[1]": {"test_system": "OG35 oligodendroglioma stem cells", "experiment": "Growth dynamics, unbiased trypan blue exclusion based cytometry", "assay_type": "cell-based, human", "settings": "0.25% GTA, 5 days of treatment", "procedure": "(§1) Growth dynamics were assessed using unbiased trypan blue exclusion based cytometry. Cells were plated (at 10,000 cells per well of a 24-well plate) directly in the absence or presence of 0.25% GTA. After 1, 3, and 5 days of treatment, cells were typsinized, collected via centrifugation, and counted according to the manufacturer's instructions (Countess Automated Cell Counter; Invitrogen Life Technologies; Carlsbad, Calif.)."}, "[2]": {"test_system": "OG33 oligodendroglioma stem cells", "experiment": "Growth dynamics, unbiased trypan blue exclusion based cytometry", "assay_type": "cell-based, human", "settings": "0.25% GTA, 5 days of treatment", "procedure": "as §1"}, "[3]": {"test_system": "OG35 oligodendroglioma stem cells", "experiment": "Cell cycle profile by propidium iodide staining and flow cytometry", "assay_type": "cell-based, human", "settings": "0.25% GTA in SCM for 24 hours; OG35", "procedure": "(§2) Cell cycle profiles were visualized by propidium iodide (PI) staining as previously described (Perez-Martinez & Jaworski (2005) J Neurosci 25:4917-29). OG35, OG33 and mouse neural stem cells were grown in stem cell medium (SCM; DMEM/F12, B27, 20 ng/ml ea bFGF & EGF) while the oligodendrocyte progenitor cell line, Oli-neu (Jung et al. (1995) Eur J Neurosci 7:1245-65) was grown in Sato's medium (DMEM supplemented with 100 μg/ml apotransferrin, 5 μg/ml insulin, 60 nM triiodothyronine, 30 nM sodium selenite, 100 μM putrescine, 1% horse serum, and 25 μg/ml G418). […] after 0.25% (v/v) GTA treatment, cells were trypsinized, recovered by centrifugation, re-suspended (10^6 cells/ml) in a low-salt PI solution ([…] polyethylene glycol PEG 8000, […], 180 U/ml RNase A, 0.1% Triton X-100, and 4 mM sodium citrate), and incubated at 37° C. for 20 minutes. After addition of an equal volume of high-salt PI solution ([…] polyethylene glycol PEG 8000, […], 180 U/ml RNase A, 0.1% Triton X-100, and 400 mM NaCl) and incubation at 4° C. for 1 hour, cell cycle profiles were recorded by flow cytometry (BD LSR 11 Flow Cytometer, BD Biosciences; Franklin Lakes, N.J.)."}, "[4]": {"test_system": "OG33 oligodendroglioma stem cells", "experiment": "Cell cycle profile by propidium iodide staining and flow cytometry", "assay_type": "cell-based, human", "settings": "0.25% GTA in SCM for 24 hours; OG33", "procedure": "as §2"}, "[5]": {"settings": "acetate supplementation in children with Canavan Disease; cited from earlier work"}, "GBM12 GSCs": {"test_system": "GBM12 GSCs", "experiment": "Cell cycle profile of GBM-derived GSC spheres (flow cytometry)", "assay_type": "cell-based, human", "settings": "0.25% GTA in SCM for 24 hours; all GSCs except GBM8", "procedure": "as §2\n(§3) Flow cytometry was performed 24 hours after GTA treatment as described in prior examples herein."}, "GBM8 GSCs": {"test_system": "GBM8 GSCs", "experiment": "Cell cycle profile of GBM-derived GSC spheres (flow cytometry)", "assay_type": "cell-based, human", "settings": "0.25% GTA in SCM for 24 hrs", "procedure": "as §2, §3"}, "[6]": {"test_system": "murine neural stem cells (NSCs)", "experiment": "Cell cycle profile by propidium iodide staining and flow cytometry", "assay_type": "cell-based", "settings": "0.25% GTA in SCM for 24 hours", "procedure": "as §2"}, "ASPA in OG35 cells": {"test_system": "ASPA in OG35 cells", "experiment": "Western blot of ASPA expression", "assay_type": "cell-based, human", "settings": "0.25% GTA", "procedure": "(§4) SDS-PAGE (25 μg protein from whole cell lysates) and western blotting were performed as previously described (Lluri et al. 2008 Exp Cell Res 314:11-24). Cytosol and nuclear fractions were isolated according to standard protocols. Antibodies: rabbit anti-mouse ASPA (2,000×), (Madhavarao et al. 2004 Comp Neurol 472:318-29) rabbit anti-human ASPA (5,000×; GTX1338; GeneTex, Irvine, Calif.), goat anti-human actin (1,000×, sc-1616, Santa Cruz Biotechnology, Santa Cruz, Calif.), rabbit anti-human GAPDH (5,000×, sc-25778, Santa Cruz Biotechnology, Santa Cruz, Calif.), mouse anti-human histone H1 (250×, sc-8030; Santa Cruz Biotechnology, Santa Cruz, Calif.). Species-specific HRP—(3,000×) conjugated secondary antibodies were obtained from Jackson ImmunoResearch (West Grove, Pa.). Immunocomplexes were visualized by enhanced chemiluminescence (PerkinElmer Life Sciences; Boston, Mass.) and densitometry performed using Quantity One software (Bio-Rad; Hercules, Calif.).\n(§5) SDS-PAGE (25 μg protein from whole cell lysates) and western blotting were performed as previously described in Example 1."}, "ASPA in OG33 cells": {"test_system": "ASPA in OG33 cells", "experiment": "Western blot of ASPA expression", "assay_type": "cell-based, human", "settings": "0.25% GTA", "procedure": "as §4, §5"}, "OG35 GSCs": {"test_system": "OG35 GSCs", "experiment": "Orthotopic graft in athymic mice, comparison of priming, concurrent and salvage regimens", "assay_type": "in vivo", "settings": "OG35 GSC engrafted mice; priming with GTA two days prior to TMZ treatment", "procedure": "Cells (2,500 cells in 4 μl) were injected into the right striatum (1 mm anterior, 1.5 mm lateral to bregma, 3.5 mm deep) of adult athymic mice (8-week-old, 25-28 g). GTA (5.8 g/kg plus 10% v/v Ora-Sweet SF® (Paddock Laboratories, Minneapolis, Minn.) was administered intragastrically daily starting on the third post-operative day. TMZ (20 mg/kg) was administered intragastrically in an oral suspension vehicle containing 2.5 mg/ml Povidone K30, 0.013% citric acid, 50% Ora-Plus® (Paddock Laboratories, Minneapolis, Minn.), 50% Ora-Sweet SF® (Paddock Laboratories, Minneapolis, Minn.) on days 5, 7, 9, 11, and 13. Mice receiving the combined GTA/TMZ therapy received the TMZ in the morning (˜7-8 AM) and GTA in the evening (˜6-7 PM).\nOrthotopic grafting was performed as described above in Example 6. In addition to the treatments described above, the following treatments were tested: 1) concurrent (GTA and TMZ on days 5, 7, 9, 11, 13, with GTA alone on days 6, 8, 10, 12 and continuous GTA afterwards), and 2) salvage (GTA administered daily after single course of TMZ on days 5, 7, 9, 11, and 13)."}}, "data": [{"smiles": "CC(=O)OCC(COC(C)=O)OC(C)=O", "note": "[GTA, glyceryltriacetate]", "values": [{"measurement": "Cell number", "setting": "[1]", "value": "significantly decreased cell number"}, {"measurement": "Cell number", "setting": "[2]", "value": "significantly decreased cell number"}, {"measurement": "Cell cycle arrest", "setting": "[3]", "value": "induced cell cycle arrest"}, {"measurement": "Cell cycle arrest", "setting": "[4]", "value": "induced cell cycle arrest"}, {"measurement": "Adverse effects", "setting": "[5]", "value": "without any adverse effects"}, {"measurement": "Growth arrest (increased proportion of cells in G0/G1 and decreased proportion in S phase)", "setting": "GBM12 GSCs", "value": "exerted growth arrest"}, {"measurement": "Growth arrest", "setting": "GBM8 GSCs", "value": "did not induce growth arrest"}, {"measurement": "Cell cycle arrest", "setting": "[6]", "value": "no effect"}, {"measurement": "ASPA expression (Western blot)", "setting": "ASPA in OG35 cells", "value": "decreased ASPA expression"}, {"measurement": "Expression of novel 26 kDa ASPA species (Western blot)", "setting": "ASPA in OG33 cells", "value": "induced the expression of a novel 26 kDa species"}, {"measurement": "Expression of the putative 36 kDa ASPA protein (Western blot)", "setting": "ASPA in OG33 cells", "value": "no effect"}, {"measurement": "Survival versus TMZ alone", "setting": "OG35 GSCs", "value": "increased survival over TMZ alone"}]}]}
